This experiment has as its system Escherichia coli (E. coli) strain CFT073 ATCC 700928. The experiment is classed as cell-based. Conditions: ATCC 700928, 22 h. The gist of the method: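 Broth microdilution MIC per CLSI M07-A8 in cation-adjusted Mueller Hinton II broth with 0.002% Tween-80. Ten-point 2-fold series topped at 64, 4, 0.5 or 0.13 μg/mL depending on protocol. Final inoculum OD600 0.0005, incubated 22 h at 35 °C.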

≈ marks a conversion by molar mass, not a printed value. *1 amine or outer side, *2 acyl side, *3 side chain or, on linkers, in order; H or OH if unused. Where a SMILES comes first, the peptide text is derived from it. [ ]: non-standard residue; d: D form. The star is where a group is joined. X13 = C[C@H](CO[C@H](CC1CC2(CCC2)C1)[C@@H](C)C(=O)[*:2])N[*:1]; X2 = CCCCCC[C@@H](OC[C@@H](C)N[*:1])[C@@H](C)C(=O)[*:2]; Cyclobutyl(trans-3-NH2) = N[C@H]1C[C@H](*)C1; Gly(cHept) = N[C@H](C(=O)O)C1CCCCCC1; NMeL = CN[C@@H](CC(C)C)C(=O)O; Chg = N[C@H](C(=O)O)C1CCCCC1; NMeNva = CCC[C@H](NC)C(=O)O; X8 = NC[C@H]1C[C@H](*)C1; Dap = NC[C@H](N)C(=O)O; Propyl(3-NH2) = NCCC*; X22 = C1CC(*)CCN1; X20 = C1NCC1C*; X7 = NCC(O)C*

A word on the MIC: it is the smallest concentration in the dilution series that meets the test's criterion for growth inhibition. As to `CCC[C@H]1C(=O)N[C@@H](C2CCCCCC2)C(=O)N[C@@H](CN)C(=O)N[C@@H](COCCCN)C(=O)N[C@H](C)CO[C@H](CC2CC3(CCC3)C2)[C@@H](C)C(=O)N1C` [Example 159, (3R,6S,9S,12S,15S,18R,19R)-9-(Aminomethyl)-6-((3-aminopropoxy)methyl)-12-cycloheptyl-3,16,18-trimethyl-15-propyl-19-(spiro[3.3]heptan-2-ylmethyl)-1-oxa-4,7,10,13,16-pentaazacyclononadecane-5,8,11,14,17-pentaone] (cyclo([Dap]S(Propyl(3-NH2))[X13][NMeNva][Gly(cHept)])), the MIC came to 3.1 µM (≈ 2.32 µg/mL). In the case of `CCCCCC[C@H]1OC[C@@H](C)NC(=O)[C@H](CNCCN)NC(=O)[C@H](CN)NC(=O)[C@H](C2CCCCCC2)NC(=O)[C@H](CC(C)C)N(C)C(=O)[C@@H]1C` [Example 161, (3R,6S,9S,12S,15S,18R,19R)-6-[(2-Aminoethylamino)methyl]-9-(aminomethyl)-12-cycloheptyl-19-hexyl-15-isobutyl-3,16,18-trimethyl-1-oxa-4,7,10,13,16-pentazacyclononadecane-5,8,11,14,17-pentone] it was 6.3 µM (≈ 4.56 µg/mL). In the case of `CCCCCC[C@H]1OC(=O)CNC(=O)[C@H](C2CCC2)NC(=O)[C@H](CN)NC(=O)[C@H](C2CCCCC2)NC(=O)[C@H](CC(C)C)N(C)C(=O)[C@@H]1C` [Example 162, (6S,9S,12S,15S,18R,19R)-9-(Aminomethyl)-6-cyclobutyl-12-cyclohexyl-19-hexyl-15-isobutyl-16,18-dimethyl-1-oxa-4,7,10,13,16-pentaazacyclononadecane-2,5,8,11,14,17-hexaone] it was 3.1 µM (≈ 2.14 µg/mL). With `CCC[C@H]1C(=O)N[C@@H](C2CCCCCC2)C(=O)N[C@@H](CN)C(=O)N[C@@H](COC2CCNCC2)C(=O)N[C@H](C)CO[C@H](CC2CC3(CCC3)C2)[C@@H](C)C(=O)N1C` [Example 163, (3R,6S,9S,12S,15S,18R,19R)-9-(Aminomethyl)-12-cycloheptyl-3,16,18-trimethyl-6-((piperidin-4-yloxy)methyl)-15-propyl-19-(spiro[3.3]heptan-2-ylmethyl)-1-oxa-4,7,10,13,16-pentaazacyclononadecane-5,8,11,14,17-pentaone] (cyclo([Dap]S(X22)[X13][NMeNva][Gly(cHept)])) the figure was 4.4 µM (≈ 3.41 µg/mL); with `CCC[C@H]1C(=O)N[C@@H](C2CCCCCC2)C(=O)N[C@@H](CN)C(=O)N[C@@H](CO[C@H]2C[C@H](N)C2)C(=O)N[C@H](C)CO[C@H](CC2CC3(CCC3)C2)[C@@H](C)C(=O)N1C` [Example 164, (3R,6S,9S,12S,15S,18R,19R)-6-(((1r,3S)-3-Aminocyclobutoxy)methyl)-9-(aminomethyl)-12-cycloheptyl-3,16,18-trimethyl-15-propyl-19-(spiro[3.3]heptan-2-ylmethyl)-1-oxa-4,7,10,13,16-pentaazacyclononadecane-5,8,11,14,17-pentaone] (cyclo([Dap]S(Cyclobutyl(trans-3-NH2))[X13][NMeNva][Gly(cHept)])), 2.2 µM (≈ 1.67 µg/mL). The molecule `CCCCCC[C@H]1OC[C@@H](C)NC(=O)[C@H](COc2cccc(CN)c2)NC(=O)[C@H](CN)NC(=O)[C@H](C2CCCCC2)NC(=O)[C@H](CC(C)C)N(C)C(=O)[C@@H]1C` [Example 167, (3R,6S,9S,12S,15S,18R,19R)-9-(Aminomethyl)-6-((3-(aminomethyl)phenoxy)methyl)-12-cyclohexyl-19-hexyl-15-isobutyl-3,16,18-trimethyl-1-oxa-4,7,10,13,16-pentaazacyclononadecane-5,8,11,14,17-pentaone] showed a minimal inhibitory concentration (MIC) of 1.6 µM (≈ 1.24 µg/mL). This MIC and that of the molecule before are within 1.5-fold of each other.

The molecule `CCCCCC[C@H]1OC[C@@H](C)NC(=O)[C@H](CO[C@H]2C[C@H](CN)C2)NC(=O)[C@H](CN)NC(=O)[C@H](C2CCCCCC2)NC(=O)[C@H](CCC)N(C)C(=O)[C@@H]1C` [Example 168, (3R,6S,9S,12S,15S,18R,19R)-9-(Aminomethyl)-6-(((1r,3S)-3-(aminomethyl)cyclobutoxy)methyl)-12-cycloheptyl-19-hexyl-3,16,18-trimethyl-15-propyl-1-oxa-4,7,10,13,16-pentaazacyclononadecane-5,8,11,14,17-pentaone] (cyclo([Dap]S(X8)[X2][NMeNva][Gly(cHept)])) came in with an MIC of 3.1 µM (≈ 2.33 µg/mL). This MIC lies about 1.9-fold higher than the previous one.

In turn, `CCCCCC[C@H]1OC[C@@H](C)NC(=O)[C@H](CNCCO)NC(=O)[C@H](CN)NC(=O)[C@H](C2CCCCCC2)NC(=O)[C@H](CC(C)C)N(C)C(=O)[C@@H]1C` [Example 169, (3R,6S,9S,12S,15S,18R,19R)-9-(Aminomethyl)-12-cycloheptyl-19-hexyl-6-(((2-hydroxyethyl)amino)methyl)-15-isobutyl-3,16,18-trimethyl-1-oxa-4,7,10,13,16-pentaazacyclononadecane-5,8,11,14,17-pentaone] showed an MIC of 6.3 µM (≈ 4.56 µg/mL). Regarding `CCC[C@H]1C(=O)N[C@@H](C2CCCCCC2)C(=O)N[C@@H](CN)C(=O)N[C@@H](COCC2CNC2)C(=O)N[C@H](C)CO[C@H](CC2CC3(CCC3)C2)[C@@H](C)C(=O)N1C` [Example 171, (3R,6S,9S,12S,15S,18R,19R)-9-(Aminomethyl)-6-((azetidin-3-ylmethoxy)methyl)-12-cycloheptyl-3,16,18-trimethyl-15-propyl-19-(spiro[3.3]heptan-2-ylmethyl)-1-oxa-4,7,10,13,16-pentaazacyclononadecane-5,8,11,14,17-pentaone] (cyclo([Dap]S(X20)[X13][NMeNva][Gly(cHept)])), the minimal inhibitory concentration (MIC) came out at 6.3 µM (≈ 4.79 µg/mL). In the case of `CCC[C@H]1C(=O)N[C@@H](C2CCCCC2)C(=O)N[C@@H](CN)C(=O)N[C@@H](CO[C@H]2C[C@H](N)C2)C(=O)N[C@H](C)CO[C@H](CC2CC3(CCC3)C2)[C@@H](C)C(=O)N1C` [Example 172, (3R,6S,9S,12S,15S,18R,19R)-6-(((1r,3S)-3-Aminocyclobutoxy)methyl)-9-(aminomethyl)-12-cyclohexyl-3,16,18-trimethyl-15-propyl-19-(spiro[3.3]heptan-2-ylmethyl)-1-oxa-4,7,10,13,16-pentaazacyclononadecane-5,8,11,14,17-pentaone] (cyclo([Chg][Dap]S(Cyclobutyl(trans-3-NH2))[X13][NMeNva])) it was 4.4 µM (≈ 3.28 µg/mL); in that of `CCCCCC[C@H]1OC[C@@H](C)NC(=O)[C@H](COCC(O)CN)NC(=O)[C@H](CN)NC(=O)[C@H](C2CCCCC2)NC(=O)[C@H](CC(C)C)N(C)C(=O)[C@@H]1C` (stereo partly drawn) [Example 173, (3R,6S,9S,12S,15S,18R,19R)-6-((3-Amino-2-hydroxypropoxy)methyl)-9-(aminomethyl)-12-cyclohexyl-19-hexyl-15-isobutyl-3,16,18-trimethyl-1-oxa-4,7,10,13,16-pentaazacyclononadecane-5,8,11,14,17-pentaone] (cyclo([Chg][Dap]S(X7)[X2][NMeL])), 12 µM (≈ 8.88 µg/mL).

In turn, `CCCCCC[C@H]1OC[C@@H](C)NC(=O)[C@H](COc2ccc(CCN)cc2)NC(=O)[C@H](CN)NC(=O)[C@H](C2CCCCC2)NC(=O)[C@H](CC(C)C)N(C)C(=O)[C@@H]1C` [Example 174, (3R,6S,9S,12S,15S,18R,19R)-6-((4-(2-Aminoethyl)phenoxy)methyl)-9-(aminomethyl)-12-cyclohexyl-19-hexyl-15-isobutyl-3,16,18-trimethyl-1-oxa-4,7,10,13,16-pentaazacyclononadecane-5,8,11,14,17-pentaone] came in with an MIC of 1.6 µM (≈ 1.26 µg/mL). This MIC lies about 7.5-fold lower than the previous one.

(Values after US11279735B2, “Cyclic peptide antibiotics” (priority 2017, dated 2022).)
